How the values were obtained:
[1] = tested on: Z-138 cells; assay: Z-138 Proliferation Assay (Cell Titer Glo, 5 days); type: cell-based; conditions: Homo sapiens, Table D-2
Source text: Z-138 Proliferation Assay
Z-138 suspension cells were purchased from ATCC (American Type Culture Collection, Manassas, Va.). RPMI/Glutamax medium, penicillin-streptomycin, heat inactivated fetal bovine serum were purchased from Life Technologies, Grand Island, N.Y., USA. V-bottom polypropylene 384-well plates were purchased from Greiner Bio-One, Monroe, N.C., USA. Cell culture 384-well white opaque plates were purchased from Perkin Elmer, Waltham, Mass., USA. Cell-Titer Gb® was purchased from Promega Corporation, Madison, Wis., USA. SpectraMax M5 plate reader was purchased from Molecular Devices LLC, Sunnyvale, Calif., USA.
Z-138 suspension cells were maintained in growth medium (RPMI 1640 supplemented with 10% v/v heat inactivated fetal bovine serum and cultured at 37° C. under 5% CO2. Under assay conditions, cells were incubated in assay medium (RPMI 1640 supplemented with 10% v/v heat inactivated fetal bovine serum and 100 units/mL penicillin-streptomycin) at 37° C. under 5% CO2.
For the assessment of the effect of compounds on the proliferation of the Z-138 cell line, exponentially growing cells were plated in 384-well white opaque plates at a density of 10,000 cells/ml in a final volume of 50 μl of assay medium. A compound source plate was prepared by performing triplicate nine-point 3-fold serial dilutions in DMSO, beginning at 10 mM (final top concentration of compound in the assay was 20 μM and the DMSO was 0.2%). A 100 nL aliquot from the compound stock plate was added to its respective well in the cell plate. […] After addition of compounds, assay plates were incubated for 5 days at 37° C., 5% CO2, relative humidity >90%.
Cell viability was measured by quantitation of ATP present in the cell cultures, adding 35 μl of Cell Titer Glo® reagent to the cell plates. Luminescence was read in the SpectraMax M5 microplate reader. The concentration of compound inhibiting cell viability by 50% was determined using a 4-parametric fit of the normalized dose response curves.

[2] = tested on: Z-138 cells; assay: Z-138 Methylation Assay (In Cell Western for symmetric di-methyl arginine and DNA content); type: cell-based; conditions: Homo sapiens, Table D-2, read-out: ICW EC50
Source text: Z-138 suspension cells were purchased from ATCC (American Type Culture Collection, Manassas, Va.). RPMI/Glutamax medium, penicillin-streptomycin, heat inactivated fetal bovine serum, and D-PBS were purchased from Life Technologies, Grand Island, N.Y., USA. Odyssey blocking buffer, 800CW goat anti-rabbit IgG (H+L) antibody, and Licor Odyssey infrared scanner were purchased from Licor Biosciences, Lincoln, Nebr., USA. Symmetric di-methyl arginine antibody was purchased from EMD Millipore, Billerica, Mass., USA. 16% Paraformaldehyde was purchased from Electron Microscopy Sciences, Hatfield, Pa., USA.
Z-138 suspension cells were maintained in growth medium (RPMI 1640 supplemented with 10% v/v heat inactivated fetal bovine serum and 100 units/mL penicillin-streptomycin) and cultured at 37° C. under 5% CO2.
Cell Treatment, in Cell Western (ICW) for Detection of Symmetric Di-Methyl Arginine and DNA Content.
Z-138 cells were seeded in assay medium at a concentration of 50,000 cells per mL to a 384-well cell culture plate with 50 μL per well. Compound (100 nL) from 384 well source plates was added directly to 384 well cell plate. Plates were incubated at 37° C., 5% CO2 for 96 hours. After four days of incubation, 40 μL of cells from incubated plates were added to poly-D-lysine coated 384 well culture plates (BD Biosciences 356697). Plates were incubated at room temperature for 30 minutes then incubated at 37° C., 5% CO2 for 5 hours. After the incubation, 40 μL per well of 8% paraformaldehyde in PBS (16% paraformaldahyde was diluted to 8% in PBS) was added to each plate and incubated for 30 minutes. Plates were transferred to a Biotek 405 plate washer and washed 5 times with 100 μL per well of wash buffer (1×PBS with 0.1% Triton X-100 (v/v)). Next 30 μL per well of Odyssey blocking buffer were added to each plate and incubated 1 hour at room temperature. Blocking buffer was removed and 20 μL per well of primary antibody was added (symmetric di-methyl arginine diluted 1:100 in Odyssey buffer with 0.1% Tween 20 (v/v)) and plates were incubated overnight (16 hours) at 4° C. Plates were washed 5 times with 100 μL per well of wash buffer. Next 20 μL per well of secondary antibody was added (1:200 800CW goat anti-rabbit IgG (H+L) antibody, 1:1000 DRAQS (Biostatus limited) in Odyssey buffer with 0.1% Tween 20 (v/v)) and incubated for 1 hour at room temperature. The plates were washed 5 times with 100 μL per well wash buffer then 1 time with 100 μL per well of water. Plates were allowed to dry at room temperature then imaged on the Licor Odyssey machine which measures integrated intensity at 700 nm and 800 nm wavelengths. Both 700 and 800 channels were scanned.
First, the ratio for each well was determined by:
Each plate included fourteen control wells of DMSO only treatment (minimum inhibition) as well as fourteen control wells for maximum inhibition treated with 3 μM of a reference compound (Background wells). The average of the ratio values for each control type was calculated and used to determine the percent inhibition for each test well in the plate. Reference compound was serially diluted three-fold in DMSO for a total of nine test concentrations, beginning at 3 μM. Percent inhibition was determined and IC50 curves were generated using triplicate wells per concentration of compound.

EC50 [2] [µM] | Structure (SMILES) | EC50 [1] [µM]
1 to 10 | Cn1cnc2ccc(-c3cccc(OC[C@@H](O)CN4CCc5ccccc5C4)c3)cc21 [Compound D173] | 1 to 10
1 to 10 | O[C@H](COc1cccc(-c2cccc3cccnc23)c1)CN1CCc2ccccc2C1 [Compound D258] | > 20
0.101 to 1 | Cn1cncc1C(=O)Nc1cccc(OC[C@H](O)CN2CCc3ccccc3C2)c1 [Compound D259] | 10 to 40
1 to 10 | Cn1cnc2ccc(-c3ccnc(NC[C@@H](O)CN4CCc5ccccc5C4)c3)cc21 [Compound D276] | 1 to 10

From patent publication US20150344457A1, “METHODS OF INHIBITING PRMT5” (EPIZYME, INC., priority 2012, published 2015)
